Test results published in patent US20240091195A1 (SANWA KAGAKU KENKYUSHO CO., LTD., priority 2021, published 2024).

Experiments:
[1] = dissolved in ethanol, stability after 24 hours
[2] = tested on: rat pilocarpine-induced salivary secretion model; test: Pilocarpine-induced salivary secretion, 0.5 cm^2 transdermal absorptive preparations (Test Example 2); type: in vivo, Hairless rats (HWY/Slc); details: 0.5 cm^2 applied to neck once a day, pilocarpine hydrochloride 0.5 mg/kg i.v., n=5
Description: Under isoflurane anesthesia, 0.5 cm^2 of each of the transdermal absorptive preparations (including a placebo preparation) containing various glycopyrronium salts produced in accordance with Preparation Production Example 1, Comparative Preparation Production Examples 2 and 4, and Reference Preparation Production Example 1 was applied to the necks of the rats once a day every 24 hours for 2 days.
The amount of saliva secreted was calculated from the difference between the weights of the cotton ball before and after collection of saliva, and taking the average value of the amount of saliva secreted of the placebo group as 100%, the salivary secretion proportion of each individual was calculated from the following (equation).

[3] = tested on: rat pilocarpine-induced salivary secretion model; test: Pilocarpine-induced salivary secretion, 0.25 cm^2 transdermal absorptive preparations (Test Example 3); details: 0.25 cm^2 applied to neck once a day, pilocarpine hydrochloride 0.5 mg/kg i.v.

## Glycopyrronium acetate
[1]
  decomposition in ethanol: 20%

## C[N+]1(C)CCC(OC(=O)C(O)(c2ccccc2)C2CCCC2)C1 (stereo not drawn) [Glycopyrronium bromide, (3RS, 2SR)-glycopyrronium bromide]
[2]; Day 1 of application (23 hours after first application), listed as glycopyrronium-bromide
  salivary secretion suppressive effect compared with placebo group: no significant effect
[3]; Day 1 of application, listed as glycopyrronium bromide
  salivary secretion suppressive effect compared with placebo group: did not show any significant effect
[3]; Day 2 of application, listed as glycopyrronium bromide
  salivary secretion suppressive effect compared with placebo group: did not show any significant effect

## C[N+]1(C)CCC(OC(=O)C(O)(c2ccccc2)C2CCCC2)C1.O=C([O-])CNC(=O)c1ccccc1 (racemic) [Glycopyrronium hippurate, (3RS, 2SR)-glycopyrronium hippurate]
[2]; Day 1 of application (23 hours after first application)
  salivary secretion suppressive effect compared with placebo group: significant salivary secretion suppressive effects
[3]; Day 1 of application
  salivary secretion suppressive effect compared with placebo group: significant effect
[3]; Day 2 of application
  salivary secretion suppressive effect compared with placebo group: significant effect only on Day 1 of application

## C[N+]1(C)CCC(OC(=O)C(O)(c2ccccc2)C2CCCC2)C1.O=C([O-])c1ccccc1 (stereo not drawn) [Glycopyrronium benzoate, glycopyrronium benzoate]
[1]
  decomposition in ethanol: 10%

## C[N+]1(C)CCC(OC(=O)C(O)(c2ccccc2)C2CCCC2)C1 (stereo not drawn) [Glycopyrronium salicylate, 3-(2-cyclopentyl-2-hydroxy-2-phenylacetoxy)-1,1-dimethylpyrrolidium salicylate]
[2]; Day 1 of application (23 hours after first application), listed as glycopyrronium salicylate
  salivary secretion suppressive effect compared with placebo group: significant salivary secretion suppressive effects
[2]; Day 2 of application (47 hours after first application)
  salivary secretion suppressive effect compared with placebo group: strongest salivary secretion suppressive effect
[3]; Day 1 of application, listed as glycopyrronium salicylate
  salivary secretion suppressive effect compared with placebo group: strongest and significant salivary secretion suppressive effect
[3]; Day 2 of application, listed as glycopyrronium salicylate
  salivary secretion suppressive effect compared with placebo group: strongest and significant salivary secretion suppressive effect
